{"source": "paper PMC7686313", "about": "“Phase 1 study of mTORC1/2 inhibitor sapanisertib (TAK-228) in advanced solid tumours, with an expansion phase in renal, endometrial or bladder cancer” (British Journal of Cancer, 2020)", "assay": "Safety (adverse events, NCI CTCAE v4.0), expansion phase", "conditions": "expansion QW 40 mg", "description": "Based on data collected during dose-escalation, the expansion phase evaluated the safety and efficacy of QD and QW sapanisertib in patients with RCC, endometrial or bladder cancer. Patients could continue receiving sapanisertib for ≤1 year (or beyond, if the investigator and sponsor agreed) in the absence of disease progression or unacceptable toxicity.\nPatients who received ≥1 dose of sapanisertib were included in the safety population. The response-evaluable population included patients who received ≥1 dose of sapanisertib, had measurable disease at baseline, and had ≥1 postbaseline assessment. […] Adverse events (AEs) were assessed using the National Cancer Institute Common Terminology Criteria for Adverse Events, v4.0. Patients were provided with a home blood-glucose meter to monitor their fasting predose blood-glucose measurements to assess hyperglycaemia as an on-target AE and PD marker."}
{"smiles": "CC(C)n1nc(-c2ccc3oc(N)nc3c2)c2c(N)ncnc21", "note": "[Sapanisertib]", "values": [{"measurement": "Abdominal pain, all-grade AE of any cause", "result": "4 (15) n (%)"}, {"measurement": "Abdominal pain, grade ≥3 AE of any cause", "result": "0 (0) n (%)"}, {"measurement": "Acute kidney injury, grade ≥3 AE of any cause", "result": "2 (8) n (%)"}, {"measurement": "Acute kidney injury, treatment-related AE", "result": "4 (15) n (%)"}, {"measurement": "Anaemia, all-grade AE of any cause", "result": "11 (42) n (%)"}, {"measurement": "Anaemia, grade ≥3 AE of any cause", "result": "3 (12) n (%)"}, {"measurement": "Anaemia, treatment-related AE", "result": "8 (31) n (%)"}, {"measurement": "Any AE", "result": "26 (100) n (%)"}, {"measurement": "Any AE resulting in dose modification/interruption", "result": "20 (77) n (%)"}, {"measurement": "Any AE resulting in treatment discontinuation", "result": "2 (8) n (%)"}, {"measurement": "Any SAE", "result": "9 (35) n (%)"}, {"measurement": "Any grade ≥3 AE", "result": "19 (73) n (%)"}, {"measurement": "Any treatment-related AE", "result": "26 (100) n (%)"}, {"measurement": "Any treatment-related SAE", "result": "4 (15) n (%)"}, {"measurement": "Any treatment-related grade ≥3 AE", "result": "14 (54) n (%)"}, {"measurement": "Arthralgia, all-grade AE of any cause", "result": "7 (27) n (%)"}, {"measurement": "Asthenia, grade ≥3 AE of any cause", "result": "2 (8) n (%)"}, {"measurement": "Asthenia, treatment-related AE", "result": "4 (15) n (%)"}, {"measurement": "Asthenia, treatment-related grade ≥3 AE", "result": "1 (4) n (%)"}, {"measurement": "Blood creatinine increased, all-grade AE of any cause", "result": "5 (19) n (%)"}, {"measurement": "Blood creatinine increased, treatment-related AE", "result": "4 (15) n (%)"}, {"measurement": "Constipation, all-grade AE of any cause", "result": "10 (38) n (%)"}, {"measurement": "Constipation, grade ≥3 AE of any cause", "result": "1 (4) n (%)"}, {"measurement": "Cough, all-grade AE of any cause", "result": "8 (31) n (%)"}, {"measurement": "Decreased appetite, all-grade AE of any cause", "result": "14 (54) n (%)"}, {"measurement": "Decreased appetite, treatment-related AE", "result": "14 (54) n (%)"}, {"measurement": "Dehydration, all-grade AE of any cause", "result": "7 (27) n (%)"}, {"measurement": "Dehydration, grade ≥3 AE of any cause", "result": "3 (12) n (%)"}, {"measurement": "Dehydration, treatment-related AE", "result": "5 (19) n (%)"}, {"measurement": "Dehydration, treatment-related grade ≥3 AE", "result": "2 (8) n (%)"}, {"measurement": "Depression, all-grade AE of any cause", "result": "3 (12) n (%)"}, {"measurement": "Diarrhoea, all-grade AE of any cause", "result": "13 (50) n (%)"}, {"measurement": "Diarrhoea, grade ≥3 AE of any cause", "result": "1 (4) n (%)"}, {"measurement": "Diarrhoea, treatment-related AE", "result": "13 (50) n (%)"}, {"measurement": "Diarrhoea, treatment-related grade ≥3 AE", "result": "1 (4) n (%)"}, {"measurement": "Dizziness, all-grade AE of any cause", "result": "3 (12) n (%)"}, {"measurement": "Dry mouth, all-grade AE of any cause", "result": "7 (27) n (%)"}, {"measurement": "Dry mouth, treatment-related AE", "result": "6 (23) n (%)"}, {"measurement": "Dysgeusia, all-grade AE of any cause", "result": "3 (12) n (%)"}, {"measurement": "Dysgeusia, treatment-related AE", "result": "3 (12) n (%)"}, {"measurement": "Dyspepsia, treatment-related AE", "result": "2 (8) n (%)"}, {"measurement": "Dyspnoea, grade ≥3 AE of any cause", "result": "0 (0) n (%)"}, {"measurement": "Fatigue, all-grade AE of any cause", "result": "24 (92) n (%)"}, {"measurement": "Fatigue, grade ≥3 AE of any cause", "result": "4 (15) n (%)"}, {"measurement": "Fatigue, treatment-related AE", "result": "23 (88) n (%)"}, {"measurement": "Fatigue, treatment-related grade ≥3 AE", "result": "4 (15) n (%)"}, {"measurement": "Haematuria, grade ≥3 AE of any cause", "result": "0 (0) n (%)"}, {"measurement": "Headache, all-grade AE of any cause", "result": "6 (23) n (%)"}, {"measurement": "Headache, treatment-related AE", "result": "4 (15) n (%)"}, {"measurement": "Hypercholesterolemia, treatment-related AE", "result": "0 (0) n (%)"}, {"measurement": "Hyperglycaemia, all-grade AE of any cause", "result": "20 (77) n (%)"}, {"measurement": "Hyperglycaemia, grade ≥3 AE of any cause", "result": "6 (23) n (%)"}, {"measurement": "Hyperglycaemia, treatment-related AE", "result": "20 (77) n (%)"}, {"measurement": "Hyperglycaemia, treatment-related grade ≥3 AE", "result": "6 (23) n (%)"}, {"measurement": "Hyperkalaemia, grade ≥3 AE of any cause", "result": "0 (0) n (%)"}, {"measurement": "Hypertension, grade ≥3 AE of any cause", "result": "1 (4) n (%)"}, {"measurement": "Hypokalaemia, grade ≥3 AE of any cause", "result": "0 (0) n (%)"}, {"measurement": "Hyponatremia, grade ≥3 AE of any cause", "result": "1 (4) n (%)"}, {"measurement": "Hypophosphatemia, grade ≥3 AE of any cause", "result": "2 (8) n (%)"}, {"measurement": "Hypophosphatemia, treatment-related AE", "result": "4 (15) n (%)"}, {"measurement": "Hypophosphatemia, treatment-related grade ≥3 AE", "result": "2 (8) n (%)"}, {"measurement": "Lymphopenia, grade ≥3 AE of any cause", "result": "1 (4) n (%)"}, {"measurement": "Lymphopenia, treatment-related grade ≥3 AE", "result": "0 (0) n (%)"}, {"measurement": "Musculoskeletal chest pain, grade ≥3 AE of any cause", "result": "1 (4) n (%)"}, {"measurement": "Nausea, all-grade AE of any cause", "result": "20 (77) n (%)"}, {"measurement": "Nausea, grade ≥3 AE of any cause", "result": "2 (8) n (%)"}, {"measurement": "Nausea, treatment-related AE", "result": "20 (77) n (%)"}, {"measurement": "Nausea, treatment-related grade ≥3 AE", "result": "2 (8) n (%)"}, {"measurement": "Oedema peripheral, all-grade AE of any cause", "result": "5 (19) n (%)"}, {"measurement": "On-study deaths", "result": "1 (4) n (%)"}, {"measurement": "Oropharyngeal pain, all-grade AE of any cause", "result": "9 (35) n (%)"}, {"measurement": "Pain in extremity, grade ≥3 AE of any cause", "result": "1 (4) n (%)"}, {"measurement": "Pneumonia, grade ≥3 AE of any cause", "result": "0 (0) n (%)"}, {"measurement": "Pruritus generalised, all-grade AE of any cause", "result": "3 (12) n (%)"}, {"measurement": "Pruritus generalised, treatment-related AE", "result": "2 (8) n (%)"}, {"measurement": "Pruritus generalised, treatment-related grade ≥3 AE", "result": "0 (0) n (%)"}, {"measurement": "Pruritus, all-grade AE of any cause", "result": "4 (15) n (%)"}, {"measurement": "Pruritus, treatment-related AE", "result": "3 (12) n (%)"}, {"measurement": "Pyrexia, all-grade AE of any cause", "result": "5 (19) n (%)"}, {"measurement": "Rash maculo-papular, all-grade AE of any cause", "result": "4 (15) n (%)"}, {"measurement": "Rash maculo-papular, grade ≥3 AE of any cause", "result": "1 (4) n (%)"}, {"measurement": "Rash maculo-papular, treatment-related AE", "result": "1 (4) n (%)"}, {"measurement": "Rash maculo-papular, treatment-related grade ≥3 AE", "result": "0 (0) n (%)"}, {"measurement": "Rash, treatment-related AE", "result": "1 (4) n (%)"}, {"measurement": "Rash, treatment-related grade ≥3 AE", "result": "0 (0) n (%)"}, {"measurement": "Sepsis, grade ≥3 AE of any cause", "result": "0 (0) n (%)"}, {"measurement": "Stomatitis (includes oropharyngeal pain and mucosal inflammation), treatment-related AE", "result": "10 (38) n (%)"}, {"measurement": "Stomatitis, all-grade AE of any cause", "result": "12 (46) n (%)"}, {"measurement": "Stomatitis, grade ≥3 AE of any cause", "result": "1 (4) n (%)"}, {"measurement": "Stomatitis, treatment-related grade ≥3 AE", "result": "1 (4) n (%)"}, {"measurement": "Thrombocytopenia, grade ≥3 AE of any cause", "result": "1 (4) n (%)"}, {"measurement": "Thrombocytopenia, treatment-related grade ≥3 AE", "result": "1 (4) n (%)"}, {"measurement": "Transitional cell carcinoma, grade ≥3 AE of any cause", "result": "1 (4) n (%)"}, {"measurement": "Urinary tract infection, all-grade AE of any cause", "result": "8 (31) n (%)"}, {"measurement": "Vomiting, all-grade AE of any cause", "result": "20 (77) n (%)"}, {"measurement": "Vomiting, grade ≥3 AE of any cause", "result": "1 (4) n (%)"}, {"measurement": "Vomiting, treatment-related AE", "result": "19 (73) n (%)"}, {"measurement": "Weight decreased, all-grade AE of any cause", "result": "7 (27) n (%)"}, {"measurement": "Weight decreased, treatment-related AE", "result": "4 (15) n (%)"}]}
